From ChEMBL document CHEMBL5614405 (J Med Chem, 2024)
Blank lines part the entries; values can stand above or below the compound they belong to. Calls of active or inactive are those of the source. The rule behind the calls is not given here.

Columns and labels:
[1] = target: T1, Rho-associated protein kinase 1 (Homo sapiens, UniProt Q13464); test: Inhibition of ROCK1 (unknown origin) incubated for 10 mins in presence of ATP by mobility shift assay
Target sequence in this assay (Q13464 whole entry): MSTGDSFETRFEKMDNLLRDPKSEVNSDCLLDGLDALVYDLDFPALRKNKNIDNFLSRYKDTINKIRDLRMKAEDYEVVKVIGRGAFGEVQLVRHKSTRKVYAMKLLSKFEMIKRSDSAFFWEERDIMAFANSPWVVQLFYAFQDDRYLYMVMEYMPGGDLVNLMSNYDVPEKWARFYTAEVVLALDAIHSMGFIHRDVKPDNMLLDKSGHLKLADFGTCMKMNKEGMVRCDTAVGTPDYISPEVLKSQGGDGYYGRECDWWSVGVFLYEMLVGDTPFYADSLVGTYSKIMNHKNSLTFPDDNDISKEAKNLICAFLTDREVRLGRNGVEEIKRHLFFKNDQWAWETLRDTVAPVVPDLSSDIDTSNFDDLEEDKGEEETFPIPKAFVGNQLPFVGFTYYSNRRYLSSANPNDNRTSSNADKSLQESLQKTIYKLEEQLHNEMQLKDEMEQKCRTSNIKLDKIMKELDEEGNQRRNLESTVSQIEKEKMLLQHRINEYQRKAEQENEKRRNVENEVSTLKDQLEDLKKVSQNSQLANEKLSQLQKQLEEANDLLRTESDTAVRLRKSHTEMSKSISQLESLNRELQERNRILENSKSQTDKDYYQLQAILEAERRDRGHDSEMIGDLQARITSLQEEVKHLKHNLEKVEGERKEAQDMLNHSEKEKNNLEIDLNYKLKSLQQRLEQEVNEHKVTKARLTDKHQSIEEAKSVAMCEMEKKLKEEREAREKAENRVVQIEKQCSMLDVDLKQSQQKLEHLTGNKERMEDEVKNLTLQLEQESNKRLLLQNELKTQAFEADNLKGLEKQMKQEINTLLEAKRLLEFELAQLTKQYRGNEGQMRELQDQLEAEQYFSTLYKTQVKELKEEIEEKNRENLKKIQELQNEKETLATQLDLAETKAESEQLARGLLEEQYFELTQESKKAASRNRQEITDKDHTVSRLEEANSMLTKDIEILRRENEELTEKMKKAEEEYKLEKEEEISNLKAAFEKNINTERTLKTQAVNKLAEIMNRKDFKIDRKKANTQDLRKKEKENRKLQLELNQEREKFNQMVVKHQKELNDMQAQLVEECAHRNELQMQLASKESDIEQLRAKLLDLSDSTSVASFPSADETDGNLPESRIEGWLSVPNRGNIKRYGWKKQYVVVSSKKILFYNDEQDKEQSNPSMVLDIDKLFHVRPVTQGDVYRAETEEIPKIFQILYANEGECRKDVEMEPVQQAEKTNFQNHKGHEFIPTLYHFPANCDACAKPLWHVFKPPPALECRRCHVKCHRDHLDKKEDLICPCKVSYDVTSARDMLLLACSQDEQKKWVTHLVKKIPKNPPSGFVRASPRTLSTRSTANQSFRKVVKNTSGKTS

[2] = target: T2, Rho-associated protein kinase 2 (Homo sapiens, UniProt O75116); test: Inhibition of ROCK2 (unknown origin) incubated for 60 mins in presence of ATP by mobility shift assay
Target sequence in this assay (O75116 whole entry): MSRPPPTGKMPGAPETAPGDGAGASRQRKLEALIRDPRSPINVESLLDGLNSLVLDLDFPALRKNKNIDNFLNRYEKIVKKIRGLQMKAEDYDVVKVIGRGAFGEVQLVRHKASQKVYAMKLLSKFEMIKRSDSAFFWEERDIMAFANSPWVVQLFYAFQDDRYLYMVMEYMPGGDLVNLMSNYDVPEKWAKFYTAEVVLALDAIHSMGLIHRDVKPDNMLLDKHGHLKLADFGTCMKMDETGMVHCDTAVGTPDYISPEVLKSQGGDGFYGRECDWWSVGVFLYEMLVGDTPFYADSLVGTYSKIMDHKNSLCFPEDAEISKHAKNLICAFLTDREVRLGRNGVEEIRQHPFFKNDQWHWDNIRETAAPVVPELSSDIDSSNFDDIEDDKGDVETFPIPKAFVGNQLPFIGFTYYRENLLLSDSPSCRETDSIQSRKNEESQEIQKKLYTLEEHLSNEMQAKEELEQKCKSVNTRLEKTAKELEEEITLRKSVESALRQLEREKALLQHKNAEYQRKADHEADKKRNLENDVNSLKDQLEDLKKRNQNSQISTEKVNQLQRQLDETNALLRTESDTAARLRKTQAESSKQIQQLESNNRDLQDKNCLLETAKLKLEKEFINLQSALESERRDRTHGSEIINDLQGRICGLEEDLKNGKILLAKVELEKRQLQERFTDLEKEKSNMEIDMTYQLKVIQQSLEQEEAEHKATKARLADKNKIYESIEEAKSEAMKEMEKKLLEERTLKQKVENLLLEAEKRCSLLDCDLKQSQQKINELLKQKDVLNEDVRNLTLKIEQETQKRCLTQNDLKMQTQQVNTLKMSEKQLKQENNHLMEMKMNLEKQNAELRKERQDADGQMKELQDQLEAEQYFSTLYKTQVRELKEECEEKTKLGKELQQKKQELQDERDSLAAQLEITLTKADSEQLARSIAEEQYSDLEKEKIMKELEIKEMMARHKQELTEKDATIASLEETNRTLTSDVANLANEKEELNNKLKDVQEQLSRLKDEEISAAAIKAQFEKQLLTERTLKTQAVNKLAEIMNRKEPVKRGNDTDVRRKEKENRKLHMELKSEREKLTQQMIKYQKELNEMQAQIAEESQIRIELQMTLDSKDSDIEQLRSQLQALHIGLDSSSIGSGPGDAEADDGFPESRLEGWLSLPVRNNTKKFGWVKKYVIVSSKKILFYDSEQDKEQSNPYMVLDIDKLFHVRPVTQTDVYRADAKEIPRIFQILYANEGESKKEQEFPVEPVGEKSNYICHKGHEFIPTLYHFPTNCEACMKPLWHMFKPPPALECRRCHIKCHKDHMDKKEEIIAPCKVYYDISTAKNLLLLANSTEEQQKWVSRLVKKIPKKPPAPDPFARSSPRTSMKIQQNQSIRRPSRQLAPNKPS

Oryctolagus cuniculus [3] = test: Anti-glaucoma activity in methylcellulose-induced acute intraocular hypertensive New Zealand rabbit model assessed as reduction in intraocular pressure at 1.55 mM,TOP administration on conjunctival sac measured for 1 to 4 hrs; type: functional, organism-based; conditions: time 1-4 hrs
Oryctolagus cuniculus [4] = test: Anti-glaucoma activity in methylcellulose-induced acute intraocular hypertensive New Zealand rabbit model assessed as reduction in intraocular pressure at 1.55 mM,TOP administration on conjunctival sac measured for 5 to 7 hrs; type: functional, organism-based; conditions: time 5-7 hrs
[5] = Toxicity in chicken embryo chorioallantoic membrane assessed as irritation score at 1.55 mM measured after 5 mins by microscopic analysis relative to Netarsudil; type: tissue-based, Gallus gallus; conditions: in vivo, 1550 µM
[6] = target: T1, Rho-associated protein kinase 1; test: Inhibition of ROCK1 (unknown origin) assessed as fold change at 3 uM incubated for 10 mins in presence of ATP by mobility shift assay relative to control
Target sequence in this assay (Q13464 2-1354 limits assumed): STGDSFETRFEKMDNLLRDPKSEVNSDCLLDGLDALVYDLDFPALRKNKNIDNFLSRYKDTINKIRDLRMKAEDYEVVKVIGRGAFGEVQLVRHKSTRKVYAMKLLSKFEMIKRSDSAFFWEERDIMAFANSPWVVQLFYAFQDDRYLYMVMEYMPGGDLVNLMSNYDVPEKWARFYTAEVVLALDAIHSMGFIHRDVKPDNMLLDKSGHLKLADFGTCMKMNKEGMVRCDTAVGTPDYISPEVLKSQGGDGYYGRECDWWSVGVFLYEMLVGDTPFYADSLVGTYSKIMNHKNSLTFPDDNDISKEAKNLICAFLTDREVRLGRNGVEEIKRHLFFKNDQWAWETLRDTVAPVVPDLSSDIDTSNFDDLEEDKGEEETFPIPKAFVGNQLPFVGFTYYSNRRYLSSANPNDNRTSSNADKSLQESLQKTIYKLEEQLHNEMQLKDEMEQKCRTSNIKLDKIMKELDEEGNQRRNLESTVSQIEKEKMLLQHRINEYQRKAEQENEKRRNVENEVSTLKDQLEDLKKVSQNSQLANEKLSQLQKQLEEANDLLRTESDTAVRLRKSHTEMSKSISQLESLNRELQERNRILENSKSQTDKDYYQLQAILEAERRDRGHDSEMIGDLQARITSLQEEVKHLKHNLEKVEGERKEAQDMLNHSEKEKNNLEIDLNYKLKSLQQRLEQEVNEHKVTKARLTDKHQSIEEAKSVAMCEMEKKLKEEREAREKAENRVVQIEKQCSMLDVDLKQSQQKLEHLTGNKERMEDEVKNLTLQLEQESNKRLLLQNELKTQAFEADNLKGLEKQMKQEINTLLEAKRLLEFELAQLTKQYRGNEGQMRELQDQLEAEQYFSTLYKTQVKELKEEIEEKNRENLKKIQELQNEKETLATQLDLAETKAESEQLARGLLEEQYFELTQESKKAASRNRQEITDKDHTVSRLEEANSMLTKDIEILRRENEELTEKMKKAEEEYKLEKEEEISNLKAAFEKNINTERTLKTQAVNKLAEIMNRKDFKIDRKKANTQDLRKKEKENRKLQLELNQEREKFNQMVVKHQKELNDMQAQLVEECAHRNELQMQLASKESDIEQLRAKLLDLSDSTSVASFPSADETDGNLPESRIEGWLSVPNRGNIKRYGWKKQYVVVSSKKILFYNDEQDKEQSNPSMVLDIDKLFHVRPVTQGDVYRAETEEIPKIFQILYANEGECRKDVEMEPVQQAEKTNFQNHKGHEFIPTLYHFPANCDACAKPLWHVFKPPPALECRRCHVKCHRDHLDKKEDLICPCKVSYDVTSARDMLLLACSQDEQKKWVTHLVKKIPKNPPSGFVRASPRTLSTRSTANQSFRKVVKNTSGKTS

[7] = target: T2, Rho-associated protein kinase 2; test: Inhibition of ROCK2 (unknown origin) assessed as fold change at 3 uM incubated for 60 mins in presence of ATP by mobility shift assay
Target sequence in this assay (O75116 whole entry, looked up): as the sequence (O75116 whole entry) above

Oryctolagus cuniculus [8] = test: (§1) Anti-glaucoma activity in methylcellulose-induced acute intraocular hypertensive New Zealand rabbit model assessed as reduction in intraocular pressure at 1.55 mM,TOP administration on conjunctival sac measured upto 24 hrs relative to Netarsudil; type: functional, organism-based
Oryctolagus cuniculus [9] = test: as §1, with “(R)-4-(3-amino-1-(isoquinolin-6-ylamino)-1-oxopropan-2-yl)benzyl 3-((nitrooxy)methyl)benzoate Dimethanesulfonate” for “Netarsudil”; type: functional, organism-based
Oryctolagus cuniculus [10] = test: Anti-glaucoma activity in methylcellulose-induced acute intraocular hypertensive New Zealand rabbit model assessed as reduction in intraocular pressure at 441.27 uM,TOP administration on conjunctival sac measured after 3 hrs relative to Netarsudil; type: functional, organism-based
Oryctolagus cuniculus [11] = test: Anti-glaucoma activity in methylcellulose-induced acute intraocular hypertensive New Zealand rabbit model assessed as reduction in intraocular pressure at 441.27 uM,TOP administration on conjunctival sac measured for 4 to 24 hrs relative to Netarsudil; type: functional, organism-based; conditions: time 4-24 hrs
Mus musculus [12] = test: Anti-glaucoma activity in magnetic microbead induced occlusion C57BL/6J mouse model assessed as reduction in intraocular pressure at 441.27 uM,TOP administration on right eye measured after 1 hr by tonometric analysis; type: functional, organism-based
Mus musculus [13] = test: Anti-glaucoma activity in magnetic microbead induced occlusion C57BL/6J mouse model assessed as reduction in intraocular pressure at 441.27 uM,TOP administration on right eye measured upto 8 hr by tonometric analysis relative to Netarsudil; type: functional, organism-based
Mus musculus [14] = test: Anti-glaucoma activity in magnetic microbead induced occlusion C57BL/6J mouse model assessed as increase in retinal ganglion cell population at 441.27 uM,TOP administrated on right eye thrice a day for 21 days by immunofluorescence based confocal microscopic analysis; type: functional, organism-based; conditions: time 21.0 day
Mus musculus [15] = test: Anti-glaucoma activity in magnetic microbead induced occlusion C57BL/6J mouse model assessed as increase in retinal ganglion cell population at 441.27 uM,TOP administrated on right eye thrice a day for 21 days by immunofluorescence based confocal microscopic analysis relative to Netarsudil; type: functional, organism-based; conditions: time 21.0 day
Mus musculus [16] = test: Anti-glaucoma activity in magnetic microbead induced occlusion C57BL/6J mouse model assessed as increase in retinal ganglion cell density at 441.27 uM,TOP administrated on right eye thrice a day for 21 days by immunofluorescence based confocal microscopic analysis relative to control; type: functional, organism-based; conditions: time 21.0 day
[17] = Unbound drug concentration in New Zealand rabbit cornea at 1.55 mM TOP administration on eye measured upto 1 hr by LC-MS/MS analysis; type: ADME, tissue-based, Oryctolagus cuniculus; conditions: in vivo, topical_or_ocular, 1550 µM
[18] = Drug metabolism in New Zealand rabbit cornea assessed as 3-(hydroxymethyl)benzoic acid metabolite formation at 1.55 mM TOP administration on eye measured upto 1 hr by LC-MS/MS analysis; type: ADME, tissue-based, Oryctolagus cuniculus; conditions: in vivo, topical_or_ocular, 1550 µM
[19] = Unbound drug concentration in New Zealand rabbit cornea at 1.55 mM TOP administration on eye measured upto 3 hr by LC-MS/MS analysis; type: ADME, tissue-based, Oryctolagus cuniculus; conditions: in vivo, topical_or_ocular, 1550 µM
[20] = Drug metabolism in New Zealand rabbit cornea assessed as 3-(hydroxymethyl)benzoic acid metabolite formation at 1.55 mM TOP administration on eye measured upto 3 hr by LC-MS/MS analysis; type: ADME, tissue-based, Oryctolagus cuniculus; conditions: in vivo, topical_or_ocular, 1550 µM
[21] = Drug metabolism in New Zealand rabbit cornea assessed as 3-(hydroxymethyl)benzoic acid metabolite formation at 1.55 mM TOP administration on eye measured after 4 hr by LC-MS/MS analysis; type: ADME, tissue-based, Oryctolagus cuniculus; conditions: in vivo, topical_or_ocular, 1550 µM
[22] = Drug metabolism in New Zealand rabbit cornea assessed as 3-((nitrooxy)methyl)benzoic acid metabolite formation at 1.55 mM TOP administration on eye measured upto 6 hr by LC-MS/MS analysis; type: ADME, tissue-based, Oryctolagus cuniculus; conditions: in vivo, topical_or_ocular, 1550 µM
[23] = Drug metabolism in New Zealand rabbit aqueous humor of eyeball assessed as (S)-3-amino-2-(4-(hydroxymethyl)phenyl)-N-(isoquinolin-6-yl)propanamide Dimethanesulfonate metabolite formation at 1.55 mM TOP administration on eye measured after 4 hrs by LC-MS/MS analysis; type: ADME, Oryctolagus cuniculus; conditions: in vivo, topical_or_ocular, 1550 µM
[24] = Drug metabolism in New Zealand rabbit aqueous humor of eyeball assessed as 3-(hydroxymethyl)benzoic acid metabolite formation at 1.55 mM TOP administration on eye measured after 4 hrs by LC-MS/MS analysis; type: ADME, Oryctolagus cuniculus; conditions: in vivo, topical_or_ocular, 1550 µM
[25] = Drug metabolism in New Zealand rabbit aqueous humor of eyeball assessed as (S)-3-amino-2-(4-(hydroxymethyl)phenyl)-N-(isoquinolin-6-yl)propanamide Dimethanesulfonate metabolite formation at 1.55 mM TOP administration on eye measured after 4 to 6 hrs by LC-MS/MS analysis; type: ADME, tissue-based, Oryctolagus cuniculus; conditions: in vivo, topical_or_ocular, 1550 µM, time 4-6 hrs
[26] = Drug metabolism in New Zealand rabbit aqueous humor of eyeball assessed as 3-(hydroxymethyl)benzoic acid metabolite formation at 1.55 mM TOP administration on eye measured after 4 to 6 hrs by LC-MS/MS analysis; type: ADME, Oryctolagus cuniculus; conditions: in vivo, topical_or_ocular, 1550 µM, time 4-6 hrs
[27] = Unbound drug concentration in New Zealand rabbit aqueous humor of eyeball at 1.55 mM TOP administration on eye measured upto 6 hr by LC-MS/MS analysis; type: ADME, tissue-based, Oryctolagus cuniculus; conditions: in vivo, topical_or_ocular, 1550 µM
[28] = Drug metabolism in New Zealand rabbit aqueous humor of eyeball assessed as 3-((nitrooxy)methyl)benzoic acid metabolite formation at 1.55 mM TOP administration on eye measured upto 6 hrs by LC-MS/MS analysis; type: ADME, tissue-based, Oryctolagus cuniculus; conditions: in vivo, topical_or_ocular, 1550 µM
[29] = Drug metabolism in New Zealand rabbit aqueous humor of eyeball assessed as 3-(hydroxymethyl)benzoic acid metabolite formation at 1.55 mM TOP administration on eye measured after 4 hr by LC-MS/MS analysis; type: ADME, tissue-based, Oryctolagus cuniculus; conditions: in vivo, topical_or_ocular, 1550 µM
[30] = Toxicity in New Zealand rabbit assessed as appearance of conjunctival congestion by measuring ocular irritation score at 0.03 % TOP administration on left eye measured after 1 day by draize eye irritation test; type: tissue-based, Oryctolagus cuniculus; conditions: in vivo, topical_or_ocular, 24 h
[31] = Toxicity in New Zealand rabbit assessed as appearance of conjunctival congestion by measuring ocular irritation score at 0.03 % TOP administration on left eye measured after 2 days by draize eye irritation test; type: tissue-based, Oryctolagus cuniculus; conditions: in vivo, topical_or_ocular, 48 h, time 2 day
[32] = Toxicity in New Zealand rabbit assessed as appearance of conjunctival congestion by measuring ocular irritation score at 0.03 % TOP administration on left eye measured after 3 days by draize eye irritation test; type: tissue-based, Oryctolagus cuniculus; conditions: in vivo, topical_or_ocular, 72 h, time 3 day
[33] = Toxicity in New Zealand rabbit assessed as appearance of conjunctival congestion by measuring ocular irritation score at 0.03 % TOP administration on left eye measured after 4 days by draize eye irritation test; type: tissue-based, Oryctolagus cuniculus; conditions: in vivo, topical_or_ocular, 96 h, time 4 day
[34] = Toxicity in New Zealand rabbit assessed as appearance of conjunctival congestion by measuring ocular irritation score at 0.03 % TOP administration on left eye measured after 5 days by draize eye irritation test; type: tissue-based, Oryctolagus cuniculus; conditions: in vivo, topical_or_ocular, 120 h, time 5 day
[35] = Toxicity in New Zealand rabbit assessed as appearance of conjunctival congestion by measuring ocular irritation score at 0.03 % TOP administration on left eye measured after 6 days by draize eye irritation test; type: tissue-based, Oryctolagus cuniculus; conditions: in vivo, topical_or_ocular, 144 h, time 6 day
[36] = Toxicity in New Zealand rabbit assessed as appearance of conjunctival congestion by measuring ocular irritation score at 0.03 % TOP administration on left eye measured after 7 days by draize eye irritation test; type: tissue-based, Oryctolagus cuniculus; conditions: in vivo, topical_or_ocular, 168 h, time 7 day
[37] = Toxicity in chicken embryo chorioallantoic membrane assessed as irritation score at 1.55 mM measured after 5 mins in presence of PTIO by microscopic analysis; type: tissue-based, Gallus gallus; conditions: in vivo, 1550 µM
[38] = Toxicity in chicken embryo chorioallantoic membrane assessed as irritation score at 1.55 mM measured after 5 mins in presence of NS 2028 by microscopic analysis; type: tissue-based, Gallus gallus; conditions: in vivo, 1550 µM
[39] = Drug metabolism in New Zealand rabbit cornea assessed as (S)-3-amino-2-(4-(hydroxymethyl)phenyl)-N-(isoquinolin-6-yl)propanamide Dimethanesulfonate metabolite formation at 1.55 mM TOP administration on eye measured upto 6 hrs by LC-MS/MS analysis; type: ADME, tissue-based, Oryctolagus cuniculus; conditions: in vivo, topical_or_ocular, 1550 µM

IC50 [1]: 22.5 nM | IC50 [2]: 5.27 nM
Compound: NCC(C(=O)Nc1ccc2cnccc2c1)c1ccc(COC(=O)CCCCCO[N+](=O)[O-])cc1 (centres undefined)

IC50 [1]: 2.54 nM | IC50 [2]: 1.48 nM
Compound: CS(=O)(=O)O.CS(=O)(=O)O.NCC(C(=O)Nc1ccc2cnccc2c1)c1ccc(COC(=O)c2cccc(CO[N+](=O)[O-])c2)cc1 (centres undefined)
Activity (Oryctolagus cuniculus [3]): Active | Activity (Oryctolagus cuniculus [4]): Active | Activity [5]: Toxic

IC50 [1]: 1.26 nM | IC50 [2]: 0.66 nM | fold change (FC) [6]: 28 | fold change (FC) [7]: 38 | Drug uptake(free) [17]: 14.12 ng/g | Drug metabolism [18]: 371.53 ng/g | Drug uptake(free) [19]: Not Active | Drug metabolism [20]: Metabolite_Notdetected | Drug metabolism [21]: 114.73 ng/mg | Drug metabolism [22]: Metabolite_Detected | Drug metabolism [23]: 0.96 ng/mL | Drug metabolism [24]: 62.95 ng/mL | Drug metabolism [25]: Metabolite_Notdetected | Drug metabolism [26]: Metabolite_Notdetected | Drug uptake(free) [27]: Active | Drug metabolism [28]: Metabolite_Detected | Drug metabolism [29]: 60.87 ng/mL | Drug metabolism [39]: Metabolite_Detected
Compound: CS(=O)(=O)O.CS(=O)(=O)O.NC[C@@H](C(=O)Nc1ccc2cnccc2c1)c1ccc(COC(=O)c2cccc(CO[N+](=O)[O-])c2)cc1
Activity (Oryctolagus cuniculus [8]): Active | Activity (Oryctolagus cuniculus [9]): Active | Activity (Oryctolagus cuniculus [10]): Active | Activity (Oryctolagus cuniculus [11]): inactive | Activity (Mus musculus [12]): Active | Activity (Mus musculus [13]): Active | Activity (Mus musculus [14]): Active | Activity (Mus musculus [15]): Active | Activity (Mus musculus [16]): Active | Activity [30]: 1.67 | Activity [31]: 1 | Activity [32]: 1.67 | Activity [33]: 1.67 | Activity [34]: 0.67 | Activity [35]: 1 | Activity [36]: 0.67 | Activity [5]: Toxic | Activity [37]: Toxic | Activity [38]: Toxic
